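Each compound was tested at five concentrations against cells in 96-well plates for 48 hours. The concentration for 50% growth inhibition is given as GI50.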 Active and inactive are the calls of the source. Cut-off read from the data, not from the text of the source: active = GI50 up to about 1.1 µM and inactive = higher.
Columns and labels:
Assay in all cases: inhibition of tumour cell growth, NCI panel, 48 h
786-0 = tested on: 786-0
CAKI-1 = tested on: CAKI-1
DMS-114 = tested on: DMS-114
HCC 2998 = tested on: HCC 2998
HOP-92 = tested on: HOP-92
HT-29 = tested on: HT-29
K562 = tested on: K562
RPMI-8226 = tested on: RPMI-8226
SF-268 = tested on: SF-268
SK-MEL-5 = tested on: SK-MEL-5
SK-OV-3 = tested on: SK-OV-3
SNB-19 = tested on: SNB-19
TK-10 = tested on: TK-10
U-251 = tested on: U-251
NCI-H522 = tested on: NCI-H522

Compound	GI50 (786-0)	GI50 (CAKI-1)	GI50 (DMS-114)	GI50 (HCC 2998)	GI50 (HOP-92)	GI50 (HT-29)	GI50 (K562)	GI50 (RPMI-8226)	GI50 (SF-268)	GI50 (SK-MEL-5)	GI50 (SK-OV-3)	GI50 (SNB-19)	GI50 (TK-10)	GI50 (U-251)	GI50 (NCI-H522)
CCOC(=O)c1[nH]c2cc(OC)c(OC)cc2c1CN(C)C	> 100 µM (inactive)	> 100 µM (inactive)	> 100 µM (inactive)	> 100 µM (inactive)	> 100 µM (inactive)	> 100 µM (inactive)	> 100 µM (inactive)	> 100 µM (inactive)	> 100 µM (inactive)	> 100 µM (inactive)	> 100 µM (inactive)	> 100 µM (inactive)	> 100 µM (inactive)	> 100 µM (inactive)	–
N#Cc1nc(C2OC(COC(=O)c3ccccc3)C(OC(=O)c3ccccc3)C2OC(=O)c2ccccc2)oc1N (stereo not drawn)	27 µM (inactive)	26.5 µM (inactive)	28.9 µM (inactive)	35.6 µM (inactive)	96.4 µM (inactive)	9.16 µM (inactive)	6.12 µM (inactive)	2.1 µM (inactive)	15 µM (inactive)	14.5 µM (inactive)	> 100 µM (inactive)	> 100 µM (inactive)	63.5 µM (inactive)	32.5 µM (inactive)	5.33 µM (inactive)
O=C(/C=C/c1ccccc1)NC1C=Nc2ccc([N+](=O)[O-])cc2NC1=O (stereo not drawn)	> 100 µM (inactive)	> 100 µM (inactive)	15.8 µM (inactive)	34.8 µM (inactive)	> 100 µM (inactive)	73.1 µM (inactive)	27 µM (inactive)	–	> 100 µM (inactive)	> 100 µM (inactive)	> 100 µM (inactive)	> 100 µM (inactive)	> 100 µM (inactive)	> 100 µM (inactive)	6.01 µM (inactive)
Cc1occ2c1C(=O)CC1C2[C@@H](O)CC2C(C)(C)CCC[C@]12C (stereo partly drawn)	> 100 µM (inactive)	–	82.8 µM (inactive)	> 100 µM (inactive)	> 100 µM (inactive)	> 100 µM (inactive)	> 100 µM (inactive)	55.6 µM (inactive)	> 100 µM (inactive)	> 100 µM (inactive)	> 100 µM (inactive)	> 100 µM (inactive)	–	94.8 µM (inactive)	56.5 µM (inactive)
Cc1c(Cl)cccc1NC(=O)/C(Cl)=C(\Cl)C(=O)O	18.4 µM (inactive)	17.3 µM (inactive)	21.2 µM (inactive)	20.3 µM (inactive)	17.4 µM (inactive)	19.2 µM (inactive)	6.19 µM (inactive)	11.8 µM (inactive)	22.6 µM (inactive)	20.5 µM (inactive)	18.9 µM (inactive)	44.8 µM (inactive)	20.9 µM (inactive)	18.5 µM (inactive)	2.1 µM (inactive)
N#CCc1ccc(C(C#N)/C(CCCC(=O)Nc2cccc([N+](=O)[O-])c2)=N\NC(=O)NN)cc1 (stereo not drawn)	> 100 µM (inactive)	> 100 µM (inactive)	> 100 µM (inactive)	> 100 µM (inactive)	> 100 µM (inactive)	> 100 µM (inactive)	> 100 µM (inactive)	> 100 µM (inactive)	> 100 µM (inactive)	> 100 µM (inactive)	> 100 µM (inactive)	> 100 µM (inactive)	> 100 µM (inactive)	> 100 µM (inactive)	> 100 µM (inactive)
CCNC(=O)O/N=C1\CCC2[C@@H]3CC=C4C[C@@H](OC5CCCCO5)CC[C@]4(C)C3CC[C@]12C (stereo partly drawn)	2.31 µM (inactive)	2.5 µM (inactive)	1.26 µM (inactive)	2.89 µM (inactive)	2.48 µM (inactive)	3.16 µM (inactive)	1.37 µM (inactive)	1.58 µM (inactive)	–	2.28 µM (inactive)	5.31 µM (inactive)	0.723 µM (active)	2 µM (inactive)	1.89 µM (inactive)	1.51 µM (inactive)
CC(=O)c1ccc(NC(=O)C(=O)Nn2c(S)nc3ccccc3c2=O)cc1	> 100 µM (inactive)	> 100 µM (inactive)	> 100 µM (inactive)	> 100 µM (inactive)	> 100 µM (inactive)	> 100 µM (inactive)	> 100 µM (inactive)	> 100 µM (inactive)	> 100 µM (inactive)	> 100 µM (inactive)	> 100 µM (inactive)	> 100 µM (inactive)	> 100 µM (inactive)	> 100 µM (inactive)	> 100 µM (inactive)
CC1(C)C2CCC3(C2)CS(=O)(=O)N2OC231 (stereo not drawn)	16.9 µM (inactive)	16 µM (inactive)	12.2 µM (inactive)	38.1 µM (inactive)	10.8 µM (inactive)	15.2 µM (inactive)	17.4 µM (inactive)	29.5 µM (inactive)	26.4 µM (inactive)	21 µM (inactive)	49.7 µM (inactive)	34.4 µM (inactive)	18 µM (inactive)	34.4 µM (inactive)	13.8 µM (inactive)
C/C(CC(=O)NC1=CC=C(NC(=O)C/C(C)=N\Nc2ccccc2)CC1)=N/Nc1ccccc1	> 100 µM (inactive)	> 100 µM (inactive)	> 100 µM (inactive)	> 100 µM (inactive)	> 100 µM (inactive)	> 100 µM (inactive)	75.7 µM (inactive)	> 100 µM (inactive)	> 100 µM (inactive)	> 100 µM (inactive)	> 100 µM (inactive)	> 100 µM (inactive)	> 100 µM (inactive)	> 100 µM (inactive)	72.6 µM (inactive)
O=C(Cc1ccccc1)N/N=C(/c1nc2ccc([N+](=O)[O-])cc2nc1O)C(O)c1ccc(C(O)/C(=N/NC(=O)Cc2ccccc2)c2nc3ccc([N+](=O)[O-])cc3nc2O)cc1 (stereo not drawn)	> 100 µM (inactive)	40.1 µM (inactive)	4.29 µM (inactive)	27 µM (inactive)	> 100 µM (inactive)	53.8 µM (inactive)	12.4 µM (inactive)	21 µM (inactive)	20.2 µM (inactive)	–	> 100 µM (inactive)	> 100 µM (inactive)	48.1 µM (inactive)	–	3.3 µM (inactive)
O=C(CCCCCCCCC(=O)OCC1OC(n2cnc3c(=O)[nH]cnc32)C(O)C1O)OCC1OC(n2cnc3c(=O)[nH]cnc32)C(O)C1O (stereo not drawn)	> 100 µM (inactive)	> 100 µM (inactive)	> 100 µM (inactive)	> 100 µM (inactive)	> 100 µM (inactive)	> 100 µM (inactive)	> 100 µM (inactive)	> 100 µM (inactive)	> 100 µM (inactive)	> 100 µM (inactive)	> 100 µM (inactive)	> 100 µM (inactive)	> 100 µM (inactive)	> 100 µM (inactive)	> 100 µM (inactive)
Cc1c(-c2ccccc2)c(=O)oc2ccc(Cl)cc12	36.5 µM (inactive)	–	26.6 µM (inactive)	> 100 µM (inactive)	32.7 µM (inactive)	> 100 µM (inactive)	> 100 µM (inactive)	> 100 µM (inactive)	90.2 µM (inactive)	40.3 µM (inactive)	34.4 µM (inactive)	63 µM (inactive)	33.3 µM (inactive)	46.9 µM (inactive)	33.7 µM (inactive)
COCCCNC(=O)CC(=O)NCCCOC	> 100 µM (inactive)	–	> 100 µM (inactive)	> 100 µM (inactive)	> 100 µM (inactive)	> 100 µM (inactive)	> 100 µM (inactive)	> 100 µM (inactive)	> 100 µM (inactive)	> 100 µM (inactive)	–	> 100 µM (inactive)	> 100 µM (inactive)	> 100 µM (inactive)	> 100 µM (inactive)
COc1cc(C(=O)NO)ccc1O	> 100 µM (inactive)	–	> 100 µM (inactive)	> 100 µM (inactive)	> 100 µM (inactive)	> 100 µM (inactive)	> 100 µM (inactive)	> 100 µM (inactive)	> 100 µM (inactive)	–	> 100 µM (inactive)	> 100 µM (inactive)	> 100 µM (inactive)	> 100 µM (inactive)	> 100 µM (inactive)
COc1ccc(C(c2ccccc2C(=O)O)c2ccc(OC)c3ccccc23)c2ccccc12	15.8 µM (inactive)	28.8 µM (inactive)	7.06 µM (inactive)	6.49 µM (inactive)	33.5 µM (inactive)	11.9 µM (inactive)	5.2 µM (inactive)	3.61 µM (inactive)	> 10 µM (inactive)	15.9 µM (inactive)	23.6 µM (inactive)	11.2 µM (inactive)	19.9 µM (inactive)	7.83 µM (inactive)	12.6 µM (inactive)
COC(=O)C(=O)C(CC(=O)Nc1c(C)cccc1C)C(=O)OC (stereo not drawn)	> 100 µM (inactive)	> 100 µM (inactive)	> 100 µM (inactive)	> 100 µM (inactive)	> 100 µM (inactive)	> 100 µM (inactive)	> 100 µM (inactive)	> 100 µM (inactive)	> 100 µM (inactive)	> 100 µM (inactive)	> 100 µM (inactive)	> 100 µM (inactive)	> 100 µM (inactive)	> 100 µM (inactive)	> 100 µM (inactive)
O=C(/C=C\c1ccccc1O)c1ccc(O)cc1O	> 100 µM (inactive)	> 100 µM (inactive)	> 100 µM (inactive)	> 100 µM (inactive)	> 100 µM (inactive)	> 100 µM (inactive)	> 100 µM (inactive)	62.8 µM (inactive)	> 100 µM (inactive)	> 100 µM (inactive)	> 100 µM (inactive)	> 100 µM (inactive)	> 100 µM (inactive)	> 100 µM (inactive)	> 100 µM (inactive)

From ChEMBL document CHEMBL1201862, “PubChem BioAssay data set” (2004)
